Where two headings read alike, the source gives them in different places. Some results are limits rather than exact numbers.

This assay relates to primary rat mixed cortical cells. Nature of the assay: In vitro myelination assay (MBP positive myelin strands, fold myelin pixels above background). The format is cell-based. To be noted: Rattus norvegicus; for fold induction at 1 µM: 1.0 μM compound; for fold induction at 10 µM: 10.0 μM compound. The procedure, abridged:
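Fourteen-day treatment of primary P1 rat mixed cortical cultures, re-dosed at days 6 and 10, at 1.0 μM and 10.0 μM. MBP immunofluorescence was imaged at 10× and myelin strands quantified by software, normalised to untreated wells as fold above background.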

The mark [1] stands for this setting: read-out: Fold myelin pixels above background relative to baseline of no added compound.
[2] abbreviates: relative to baseline of no added compound, read-out: Fold myelin pixels above background.
Where [3] appears, read: relative to baseline of no added compound, read-out: Fold myelin pixels above background, 1.0 μM.
Where [4] appears, read: relative to baseline of no added compound, read-out: Fold myelin pixels above background, 10.0 μM.

On to `Cc1cc(Nc2ncn(-c3ccc(F)c(F)c3)n2)cc(N[C@H]2C[C@@H](N3CCOCC3)C2)c1` (single isomer, unassigned) [Compound 826, N1-[1-(3,4-difluorophenyl)-1,2,4-triazol-3-yl]-5-methyl-N3-(3-morpholinocyclobutyl)benzene-1,3-diamine], for which, under setting [1], the fold induction at 1 µM lay in the range of 10 to 100 and the fold induction at 10 µM is no more than 1. The matching figures for `Cc1cc(Nc2ccn(C)n2)cc(Nc2ncn(-c3ccccc3)n2)c1` [Compound 828, 5-methyl-N3-(1-methylpyrazol-3-yl)-N1-(1-phenyl-1,2,4-triazol-3-yl)benzene-1,3-diamine]: 1 to 10 and no more than 1. Regarding `Cc1c(Nc2ncn(-c3cc(F)cc(F)c3)n2)cc(N2CC(N3CCOCC3)C2)cc1OC(C)C` [Compound 641, 1-(3,5-difluorophenyl)-N-[3-isopropoxy-2-methyl-5-(3-morpholinoazetidin-1-yl)phenyl]-1,2,4-triazol-3-amine], under setting [2], the fold induction at 1 µM was 10 to 100 and the fold induction at 10 µM is 1 to 10.

For `Cc1cc(Nc2ncn(-c3cc(F)cc(F)c3)n2)cc(N2CC(N3CCOC[C@@H]3C)C2)c1` (single isomer, unassigned) [Compound 800], under setting [1], the fold induction at 1 µM was 10 to 100 and the fold induction at 10 µM is 10 to 100.

In the case of `Cc1cc(Nc2ncn(-c3cc(F)cc(F)c3)n2)cc(N2CC(CO)C2)c1` [Compound 493, [1-[3-[[1-(3,5-difluorophenyl)-1,2,4-triazol-3-yl]amino]-5-methyl-phenyl]azetidin-3-yl]methanol], the fold induction at 10 µM under setting [2] was no more than 1. On to `Cc1cc(N2CCN(C3COC3)CC2)cc(Nc2ncn(-c3cc(F)cc(F)c3)n2)c1C` [Compound 425, 1-(3,5-difluorophenyl)-N-[2,3-dimethyl-5-[4-(oxetan-3-yl)piperazin-1-yl]phenyl]-1,2,4-triazol-3-amine], for which, under setting [2], the fold induction at 1 µM lay within 1 to 10 and the fold induction at 10 µM is 100 to 1000.

For the compound `Cc1cc(Nc2ncn(-c3cc(F)cc(F)c3)n2)cc(C2(O)CCN(C3COC3)CC2)c1` [Compound 516, 4-[3-[[1-(3,5-difluorophenyl)-1,2,4-triazol-3-yl]amino]-5-methyl-phenyl]-1-(oxetan-3-yl)piperidin-4-ol], under setting [2], the fold induction at 1 µM was in the range of 10 to 100 and the fold induction at 10 µM fell in the range of 10 to 100. On to `N#Cc1cc(N2CCN(C3COC3)CC2)cc(Nc2ncn(-c3cc(F)cc(F)c3)n2)n1` [Compound 707, 6-[[1-(3,5-difluorophenyl)-1,2,4-triazol-3-yl]amino]-4-[4-(oxetan-3-yl)piperazin-1-yl]pyridine-2-carbonitrile], for which, under setting [2], the fold induction at 1 µM is no more than 1 and the fold induction at 10 µM is no more than 1. For the compound `CCC1CCCN1c1cc(F)cc(-n2cnc(Nc3cc(C)cc(N4CCN(C5COC5)CC4)c3)n2)c1` (centres unmarked) [Compound 103, 1-[3-(2-ethylpyrrolidin-1-yl)-5-fluoro-phenyl]-N-[3-methyl-5-[4-(oxetan-3-yl)piperazin-1-yl]phenyl]-1,2,4-triazol-3-amine], the fold induction at 1 µM under setting [3] lay in the range of 100 to 1000. Moreover, the fold induction at 10 µM under setting [4] was no more than 1.

With `CCc1cc(Nc2ncn(-c3cnccn3)n2)cc(N2CC(N3CCOCC3)C2)c1` [Compound 341, N-[3-ethyl-5-(3-morpholinoazetidin-1-yl)phenyl]-1-pyrazin-2-yl-1,2,4-triazol-3-amine], the fold induction at 1 µM under setting [3] is no more than 1. In addition, the fold induction at 10 µM under setting [4] is 1 to 10. The matching figures for `Cc1cc(Nc2ncn(-c3cc(F)cc(F)c3)n2)cc(C2CCN(C3CC3)CC2)c1` [Compound 261, N-[3-(1-cyclopropyl-4-piperidyl)-5-methyl-phenyl]-1-(3,5-difluorophenyl)-1,2,4-triazol-3-amine]: 10 to 100 and 10 to 100. As for `CCc1cc(Nc2ncn(-c3cncnc3)n2)cc(N2CC(N3CCOCC3)C2)c1` [Compound 544, N-[3-ethyl-5-(3-morpholinoazetidin-1-yl)phenyl]-1-pyrimidin-5-yl-1,2,4-triazol-3-amine], under setting [2], the fold induction at 1 µM was 1 to 10 and the fold induction at 10 µM is 10 to 100. `[2H]C1([2H])N(c2cc(C)cc(Nc3ncn(-c4cc(F)cc(F)c4)n3)c2)C([2H])([2H])C([2H])([2H])N(C2CCCOC2)C1([2H])[2H]` (centres unmarked) [Compound 926, 1-(3,5-difluorophenyl)-N-[3-methyl-5-(2,2,3,3,5,5,6,6-octadeuterio-4-tetrahydropyran-3-yl-piperazin-1-yl)phenyl]-1,2,4-triazol-3-amine]: under setting [1], the fold induction at 1 µM was 10 to 100 and the fold induction at 10 µM lay within 1 to 10. In the case of `Fc1cc(Nc2ncn(-c3ccc(F)cc3F)n2)cc(N2CCOCC2)c1` [Compound 321, 1-(2,4-difluorophenyl)-N-(3-fluoro-5-morpholino-phenyl)-1,2,4-triazol-3-amine], the fold induction at 1 µM under setting [3] fell in the range of 1 to 10. For the same compound, the fold induction at 10 µM under setting [4] was no more than 1. `CC1CCN(c2cc(Nc3ncn(-c4ccccc4)n3)cc(C3CC3)n2)CC1` [Compound 44, 2-cyclopropyl-6-(4-methyl-1-piperidyl)-N-(1-phenyl-1,2,4-triazol-3-yl)pyridin-4-amine]: the fold induction at 1 µM under setting [3] fell in the range of 1000 to 10000. Moreover, the fold induction at 10 µM under setting [4] is 1000 to 10000. On to `C1=C(c2cc(Nc3ncn(-c4ccccc4)n3)cc(N3CCOCC3)c2)COC1` [Compound 465, N-[3-(2,5-dihydrofuran-3-yl)-5-morpholino-phenyl]-1-phenyl-1,2,4-triazol-3-amine], for which, under setting [2], the fold induction at 1 µM was in the range of 100 to 1000 and the fold induction at 10 µM is no more than 1. Consider `CCc1cc(Nc2ncn(-c3cccc(SC)c3)n2)cc(N2CCN(C3COC3)CC2)c1` [Compound 463, N-[3-ethyl-5-[4-(oxetan-3-yl)piperazin-1-yl]phenyl]-1-(3-methylsulfanylphenyl)-1,2,4-triazol-3-amine], for which, under setting [2], the fold induction at 1 µM lay in the range of 1 to 10 and the fold induction at 10 µM is no more than 1. As for `Cc1cc(Nc2ncn(-c3ccc(F)c(F)c3)n2)cc(NC2CCN(C3COC3)CC2)c1` [Compound 278, N3-[1-(3,4-difluorophenyl)-1,2,4-triazol-3-yl]-5-methyl-N1-[1-(oxetan-3-yl)-4-piperidyl]benzene-1,3-diamine], the fold induction at 1 µM under setting [3] lay in the range of 100 to 1000. For the same compound, the fold induction at 10 µM under setting [4] was in the range of 1 to 10.

In the case of `CSc1cccc(-n2cnc(Nc3cc(C)cc(N4CCN(C5COC5)CC4)c3)n2)c1` [Compound 439, N-[3-methyl-5-[4-(oxetan-3-yl)piperazin-1-yl]phenyl]-1-(3-methylsulfanylphenyl)-1,2,4-triazol-3-amine], under setting [2], the fold induction at 1 µM lay in the range of 1 to 10 and the fold induction at 10 µM was in the range of 1 to 10.

As to `Cc1cc(Nc2ncn(-c3cc(F)cc(F)c3)n2)cc(N2CCC3OCC3C2)c1` (centres unmarked) [Compound 1057, 1-(3,5-difluorophenyl)-N-[3-methyl-5-(8-oxa-4-azabicyclo[4.2.0]octan-4-yl)phenyl]-1,2,4-triazol-3-amine], under setting [1], the fold induction at 1 µM lay in the range of 1 to 10 and the fold induction at 10 µM was no more than 1. On to `Cc1cc(Nc2ncn(-c3cc(F)cc(F)c3)n2)c(F)c(NC2(C)COC2)c1` [Compound 869, N3-[1-(3,5-difluorophenyl)-1,2,4-triazol-3-yl]-2-fluoro-5-methyl-N1-(3-methyloxetan-3-yl)benzene-1,3-diamine], for which, under setting [1], the fold induction at 1 µM lay within 10 to 100 and the fold induction at 10 µM was 1 to 10. The matching figures for `Cc1cc(Nc2ncn(-c3cnccn3)n2)cc(N2CC(N3CCCOCC3)C2)c1` [Compound 825, N-[3-methyl-5-[3-(1,4-oxazepan-4-yl)azetidin-1-yl]phenyl]-1-pyrazin-2-yl-1,2,4-triazol-3-amine]: 10 to 100 and 10 to 100.

Regarding `COCC1CCN(c2cc(C(F)F)cc(Nc3ncn(-c4cccc(C(F)F)c4)n3)n2)CC1` [Compound 645, 4-(difluoromethyl)-N-[1-[3-(difluoromethyl)phenyl]-1,2,4-triazol-3-yl]-6-[4-(methoxymethyl)-1-piperidyl]pyridin-2-amine], under setting [2], the fold induction at 1 µM was in the range of 1 to 10 and the fold induction at 10 µM is 10 to 100. Regarding `Cc1cc(Nc2ncn(-c3cc(F)cc(F)c3)n2)cc(N2CCN(CC(C)(C)O)CC2C)c1` (centres unmarked) [Compound 1024, 1-[4-[3-[[1-(3,5-difluorophenyl)-1,2,4-triazol-3-yl]amino]-5-methyl-phenyl]-3-methyl-piperazin-1-yl]-2-methyl-propan-2-ol], under setting [1], the fold induction at 1 µM was 10 to 100 and the fold induction at 10 µM was no more than 1. In the case of `COCCC1CN(c2cc(C)cc(Nc3ncn(-c4cc(F)cc(F)c4)n3)c2)CCO1` (centres unmarked) [Compound 1030, 1-(3,5-difluorophenyl)-N-[3-[2-(2-methoxyethyl)morpholin-4-yl]-5-methyl-phenyl]-1,2,4-triazol-3-amine], under setting [1], the fold induction at 1 µM was in the range of 10 to 100 and the fold induction at 10 µM was in the range of 1 to 10. On to `Cc1cc(Nc2ncn(-c3ccccc3)n2)cc(N2C[C@@H]3C[C@H]2CN3C2COC2)c1` [Compound 219, N-[3-methyl-5-[(1S,4S)-2-(oxetan-3-yl)-2,5-diazabicyclo[2.2.1]heptan-5-yl]phenyl]-1-phenyl-1,2,4-triazol-3-amine], for which, under setting [3], the fold induction at 1 µM lay within 100 to 1000. The fold induction at 10 µM under setting [4] was in the range of 1 to 10. As to `Fc1ccc(-n2cnc(Nc3cc(C(F)(F)F)cc(N4CCN(C5COC5)CC4)n3)n2)cc1F` [Compound 546, N-[1-(3,4-difluorophenyl)-1,2,4-triazol-3-yl]-6-[4-(oxetan-3-yl)piperazin-1-yl]-4-(trifluoromethyl)pyridin-2-amine], under setting [2], the fold induction at 1 µM lay in the range of 1 to 10 and the fold induction at 10 µM lay in the range of 10 to 100.

Source of the values: patent US10766869B2, “Triazoles for the treatment of demyelinating dieases” (Vertex Pharmaceuticals Incorporated, priority 2015, dated 2020).
